Laboratory results as given in the NIST ThermoML archive (doi:10.1016/j.jct.2013.12.025).

Experiment: refractive index (Na D-line) (dimensionless); xn = mol fraction of the nth substance listed
Conditions: 101 kPa, Liquid, Standard Abbe refractometry

C=C[Si](C)(C)O[Si](C)(C)C=C [1,3-diethenyl-1,1,3,3-tetramethyldisiloxane] + O=[N+]([O-])c1ccccc1
refractive index
Conditions	283.15 K	288.15 K	293.15 K	298.15 K	303.15 K
x1 = 0.05	1.54466	1.54219	1.5397	1.53724	1.5348
x1 = 0.1	1.53289	1.53042	1.52796	1.52547	1.52302
x1 = 0.15	1.52202	1.51955	1.51705	1.51459	1.51211
x1 = 0.2	1.51193	1.50945	1.50694	1.50445	1.50196
x1 = 0.25	1.50266	1.50017	1.49764	1.49511	1.49265
x1 = 0.3	1.49408	1.49154	1.48901	1.48643	1.48396
x1 = 0.3508	1.48595	1.48341	1.48085	1.47825	1.47577
x1 = 0.4001	1.47862	1.47608	1.47352	1.47089	1.46841
x1 = 0.4501	1.4717	1.46914	1.46659	1.46395	1.46144
x1 = 0.4999	1.46522	1.46267	1.46009	1.45748	1.45493
x1 = 0.55	1.45917	1.45661	1.45401	1.45139	1.44883
x1 = 0.6001	1.45344	1.45088	1.4483	1.44568	1.44308
x1 = 0.6487	1.44824	1.44565	1.44307	1.44043	1.43783
x1 = 0.6999	1.44306	1.44044	1.43784	1.43521	1.43261
x1 = 0.7499	1.43821	1.43565	1.43306	1.43043	1.42778
x1 = 0.7999	1.4337	1.43109	1.42845	1.42584	1.42318
x1 = 0.8497	1.42937	1.42677	1.42414	1.42152	1.41887
x1 = 0.9	1.42527	1.42262	1.41999	1.41736	1.41471
x1 = 0.9499	1.42134	1.4187	1.41606	1.41343	1.41079
x1 = 1	1.4176	1.41495	1.41227	1.40965	1.407

C=C[Si](C)(C)O[Si](C)(C)C=C [1,3-diethenyl-1,1,3,3-tetramethyldisiloxane] + Clc1ccccc1
refractive index
Conditions	283.15 K	288.15 K	293.15 K	298.15 K	303.15 K
x1 = 0.05	1.51909	1.51642	1.51366	1.51088	1.50802
x1 = 0.0998	1.50933	1.5066	1.50385	1.50103	1.49821
x1 = 0.15	1.50029	1.49759	1.49487	1.492	1.48923
x1 = 0.1996	1.49216	1.48946	1.48671	1.48389	1.48103
x1 = 0.25	1.4846	1.48187	1.47913	1.47637	1.47349
x1 = 0.2999	1.47766	1.47495	1.47223	1.46943	1.46663
x1 = 0.35	1.47122	1.46854	1.46582	1.46303	1.46019
x1 = 0.3999	1.46527	1.46262	1.4599	1.45712	1.45432
x1 = 0.4496	1.45981	1.45712	1.45441	1.45167	1.44883
x1 = 0.4999	1.45464	1.45197	1.44926	1.4465	1.4437
x1 = 0.5499	1.44985	1.44716	1.44446	1.4417	1.43891
x1 = 0.6	1.44533	1.44268	1.43999	1.43722	1.43446
x1 = 0.6469	1.44138	1.4387	1.43603	1.43329	1.43053
x1 = 0.6998	1.43721	1.43455	1.43185	1.42911	1.42638
x1 = 0.7499	1.43345	1.4308	1.42812	1.42542	1.4227
x1 = 0.7997	1.42994	1.42729	1.42463	1.42193	1.41923
x1 = 0.8499	1.42661	1.42395	1.42129	1.41862	1.41593
x1 = 0.8996	1.4235	1.42083	1.41817	1.4155	1.41283
x1 = 0.9497	1.4205	1.41785	1.4152	1.41257	1.40991
x1 = 1	1.41767	1.415	1.41237	1.40973	1.40708
